Measurements: patent US20100035867A1 (priority 2006, published 2010)
“And” between values parts separate entries of the source, which are not always exact repeats. Identical values can stand only once.

How the values were obtained:
[1] = tested on: adenylyl cyclase or guanylyl cyclase; assay type: cell-based; settings: read-out: typical IC50
T84 cells [2] = assay type: cell-based, human; settings: 50 μM compound
[3] = molecular target: guanylyl cyclase type C (GC-C) (Homo sapiens, UniProt P25092); test: Guanylin-induced activation of GC-C in T84 cells (cyclic GMP accumulation)
[4] = molecular target: anthrax edema toxin (protective antigen and edema factor) (Bacillus anthracis, UniProt P40136); assay type: cell-based
[5] = molecular target: pertussis adenylyl cyclase toxin (Bordetella pertussis, UniProt P0DKX7); test: Cyclic AMP accumulation in T84 cells infected with pertussis adenylyl cyclase toxin; assay type: cell-based; settings: 50 μM compound
Protocol: The assay was performed in T84 cells by the methods described in Example 2 and Ahuja, N.; Kumar, P.; Bhatnagar, R., The adenylate cyclase toxins. Crit Rev Microbiol 2004, 30, (3), 187-96, but the amount of cyclic AMP accumulated was assayed with a commercially available kit from Cayman Chemical Co.
Cells were treated with pertussis adenylyl cyclase toxin at 1 μg/ml in Dulbecco's minimal essential medium for 60 min in the presence of vehicle DMSO (0.1%) or 50 μM compound IIb for 60 min and then medium was aspirated and replaced with DPBS containing 1 mM IBMX and DMSO or compound IIb, respectively, for the vehicle and compound IIb-treated samples. After 10 min incubation, the amount of cyclic AMP was measured. […] N=3.

[6] = molecular target: T1, membrane guanylyl cyclase (guanylyl cyclase type A, GC-A) (Homo sapiens, UniProt P16066); test: ANP-induced cyclic GMP accumulation in BE-2(C) neuroblastoma cells
T1 sequence (P16066 33-1061): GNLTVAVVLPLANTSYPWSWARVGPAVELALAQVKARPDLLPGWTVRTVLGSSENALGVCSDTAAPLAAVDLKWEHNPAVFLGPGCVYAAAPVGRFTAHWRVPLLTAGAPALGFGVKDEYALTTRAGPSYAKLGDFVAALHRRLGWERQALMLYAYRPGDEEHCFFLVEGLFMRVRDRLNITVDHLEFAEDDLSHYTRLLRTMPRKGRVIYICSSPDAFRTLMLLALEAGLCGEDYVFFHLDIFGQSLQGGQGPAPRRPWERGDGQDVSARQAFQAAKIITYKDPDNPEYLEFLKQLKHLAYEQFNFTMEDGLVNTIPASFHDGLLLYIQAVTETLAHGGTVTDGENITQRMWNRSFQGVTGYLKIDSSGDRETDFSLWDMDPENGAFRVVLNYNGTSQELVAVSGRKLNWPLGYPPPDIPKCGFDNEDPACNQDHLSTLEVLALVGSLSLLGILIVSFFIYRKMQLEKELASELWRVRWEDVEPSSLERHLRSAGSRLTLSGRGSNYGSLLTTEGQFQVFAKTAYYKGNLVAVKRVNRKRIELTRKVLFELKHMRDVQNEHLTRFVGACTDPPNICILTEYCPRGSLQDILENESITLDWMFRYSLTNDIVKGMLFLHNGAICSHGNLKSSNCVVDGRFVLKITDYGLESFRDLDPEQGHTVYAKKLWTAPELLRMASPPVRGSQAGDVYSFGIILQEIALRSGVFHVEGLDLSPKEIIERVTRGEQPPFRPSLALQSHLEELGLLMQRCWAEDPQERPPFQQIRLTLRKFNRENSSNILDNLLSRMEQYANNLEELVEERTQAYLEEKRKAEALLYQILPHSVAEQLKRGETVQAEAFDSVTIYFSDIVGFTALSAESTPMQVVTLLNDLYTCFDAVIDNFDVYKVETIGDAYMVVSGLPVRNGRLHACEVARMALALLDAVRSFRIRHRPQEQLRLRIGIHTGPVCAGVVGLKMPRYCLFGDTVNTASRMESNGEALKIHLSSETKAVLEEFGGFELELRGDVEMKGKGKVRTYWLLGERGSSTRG

adenylyl cyclase = assay type: cell-based, human
T84 cells [7] = test: STa-induced chloride transport in T84 cells (SPQ); assay type: cell-based, human; settings: increasing STa concentrations, 50 μM compound
Protocol: The chloride transport assay was performed by a method known in the art (West, M. R.; Molloy, C. R., A microplate assay measuring chloride ion channel activity. Anal Biochem 1996, 241, (1), 51-8). In some experiments, MQAE was used as a fluorescent sensor for chloride anions and in other experiments, SPQ was used to detect chloride efflux from T84 cells.
This experiment followed the protocol described in Examples 2 and 10. SPQ was used to detect chloride efflux from T84 cells.

guanylyl cyclase type C (GC-C), sequence (P25092 24-1073): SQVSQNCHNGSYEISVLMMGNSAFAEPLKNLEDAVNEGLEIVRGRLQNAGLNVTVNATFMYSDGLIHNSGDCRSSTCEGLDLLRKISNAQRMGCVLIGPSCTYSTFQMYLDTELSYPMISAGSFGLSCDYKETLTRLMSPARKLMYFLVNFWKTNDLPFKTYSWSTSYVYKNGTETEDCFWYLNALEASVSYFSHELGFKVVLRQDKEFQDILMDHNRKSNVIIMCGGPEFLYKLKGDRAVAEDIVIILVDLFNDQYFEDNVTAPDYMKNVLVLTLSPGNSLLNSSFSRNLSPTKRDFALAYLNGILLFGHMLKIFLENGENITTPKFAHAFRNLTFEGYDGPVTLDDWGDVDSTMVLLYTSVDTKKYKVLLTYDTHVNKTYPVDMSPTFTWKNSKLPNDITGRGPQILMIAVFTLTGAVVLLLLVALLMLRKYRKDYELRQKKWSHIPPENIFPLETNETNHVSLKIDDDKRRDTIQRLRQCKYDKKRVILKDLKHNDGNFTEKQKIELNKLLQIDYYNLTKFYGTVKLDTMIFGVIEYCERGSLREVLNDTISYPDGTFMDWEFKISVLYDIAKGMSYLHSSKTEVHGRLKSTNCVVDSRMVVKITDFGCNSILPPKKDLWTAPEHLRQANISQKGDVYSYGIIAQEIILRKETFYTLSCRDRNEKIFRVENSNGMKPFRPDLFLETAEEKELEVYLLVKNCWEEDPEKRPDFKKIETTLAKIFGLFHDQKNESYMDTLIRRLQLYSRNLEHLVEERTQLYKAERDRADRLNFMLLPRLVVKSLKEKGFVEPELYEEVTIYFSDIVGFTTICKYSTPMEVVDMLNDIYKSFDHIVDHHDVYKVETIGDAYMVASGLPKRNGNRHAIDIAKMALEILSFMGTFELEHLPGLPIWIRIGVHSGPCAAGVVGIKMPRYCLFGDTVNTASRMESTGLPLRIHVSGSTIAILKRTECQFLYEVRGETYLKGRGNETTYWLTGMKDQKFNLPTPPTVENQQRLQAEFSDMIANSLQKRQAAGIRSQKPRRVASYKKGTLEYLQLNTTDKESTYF
pertussis adenylyl cyclase toxin, sequence (P0DKX7 whole entry, looked up): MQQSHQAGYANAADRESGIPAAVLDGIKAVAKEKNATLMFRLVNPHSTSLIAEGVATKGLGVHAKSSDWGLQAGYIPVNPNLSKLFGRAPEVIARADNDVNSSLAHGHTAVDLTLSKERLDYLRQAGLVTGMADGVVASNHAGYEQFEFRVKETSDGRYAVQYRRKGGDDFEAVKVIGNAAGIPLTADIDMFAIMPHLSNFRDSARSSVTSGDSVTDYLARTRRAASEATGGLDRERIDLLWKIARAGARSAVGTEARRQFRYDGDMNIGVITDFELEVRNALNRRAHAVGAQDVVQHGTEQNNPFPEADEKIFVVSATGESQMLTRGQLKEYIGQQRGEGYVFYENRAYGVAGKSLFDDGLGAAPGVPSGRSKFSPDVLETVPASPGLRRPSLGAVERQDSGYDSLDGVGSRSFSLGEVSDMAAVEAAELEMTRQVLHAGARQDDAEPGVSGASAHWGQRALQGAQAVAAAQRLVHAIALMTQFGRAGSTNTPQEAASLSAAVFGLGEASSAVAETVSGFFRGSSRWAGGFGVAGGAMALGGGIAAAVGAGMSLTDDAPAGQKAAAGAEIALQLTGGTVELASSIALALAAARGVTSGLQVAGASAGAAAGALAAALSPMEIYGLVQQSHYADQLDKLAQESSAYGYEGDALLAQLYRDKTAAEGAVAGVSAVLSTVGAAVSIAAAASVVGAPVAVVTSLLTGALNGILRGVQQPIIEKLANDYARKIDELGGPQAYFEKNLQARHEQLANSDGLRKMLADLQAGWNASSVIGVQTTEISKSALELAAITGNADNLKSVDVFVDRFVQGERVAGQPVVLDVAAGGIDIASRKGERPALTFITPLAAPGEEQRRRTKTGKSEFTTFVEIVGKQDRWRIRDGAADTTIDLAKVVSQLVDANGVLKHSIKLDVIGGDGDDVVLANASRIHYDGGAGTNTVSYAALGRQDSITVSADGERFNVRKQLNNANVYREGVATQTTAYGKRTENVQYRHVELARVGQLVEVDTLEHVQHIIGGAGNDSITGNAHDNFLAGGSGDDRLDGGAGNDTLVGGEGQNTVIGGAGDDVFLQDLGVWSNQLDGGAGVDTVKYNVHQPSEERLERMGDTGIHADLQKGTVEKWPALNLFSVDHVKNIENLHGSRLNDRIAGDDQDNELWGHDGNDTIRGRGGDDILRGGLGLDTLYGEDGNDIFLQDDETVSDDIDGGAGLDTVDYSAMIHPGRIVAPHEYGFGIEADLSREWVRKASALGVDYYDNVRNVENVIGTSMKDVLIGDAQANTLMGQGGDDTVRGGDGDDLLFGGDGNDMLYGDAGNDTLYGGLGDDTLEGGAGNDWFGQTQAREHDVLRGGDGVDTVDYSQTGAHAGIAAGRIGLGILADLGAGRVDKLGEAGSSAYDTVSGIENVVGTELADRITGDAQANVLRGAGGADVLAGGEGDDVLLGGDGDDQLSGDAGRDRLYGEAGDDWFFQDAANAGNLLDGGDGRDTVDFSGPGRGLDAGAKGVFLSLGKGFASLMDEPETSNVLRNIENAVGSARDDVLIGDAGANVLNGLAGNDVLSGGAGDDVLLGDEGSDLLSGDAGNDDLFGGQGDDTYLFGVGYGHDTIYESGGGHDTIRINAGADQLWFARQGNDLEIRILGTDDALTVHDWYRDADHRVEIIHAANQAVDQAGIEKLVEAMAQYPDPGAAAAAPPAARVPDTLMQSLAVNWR
anthrax edema toxin (protective antigen and edema factor), sequence (P40136 whole entry, looked up): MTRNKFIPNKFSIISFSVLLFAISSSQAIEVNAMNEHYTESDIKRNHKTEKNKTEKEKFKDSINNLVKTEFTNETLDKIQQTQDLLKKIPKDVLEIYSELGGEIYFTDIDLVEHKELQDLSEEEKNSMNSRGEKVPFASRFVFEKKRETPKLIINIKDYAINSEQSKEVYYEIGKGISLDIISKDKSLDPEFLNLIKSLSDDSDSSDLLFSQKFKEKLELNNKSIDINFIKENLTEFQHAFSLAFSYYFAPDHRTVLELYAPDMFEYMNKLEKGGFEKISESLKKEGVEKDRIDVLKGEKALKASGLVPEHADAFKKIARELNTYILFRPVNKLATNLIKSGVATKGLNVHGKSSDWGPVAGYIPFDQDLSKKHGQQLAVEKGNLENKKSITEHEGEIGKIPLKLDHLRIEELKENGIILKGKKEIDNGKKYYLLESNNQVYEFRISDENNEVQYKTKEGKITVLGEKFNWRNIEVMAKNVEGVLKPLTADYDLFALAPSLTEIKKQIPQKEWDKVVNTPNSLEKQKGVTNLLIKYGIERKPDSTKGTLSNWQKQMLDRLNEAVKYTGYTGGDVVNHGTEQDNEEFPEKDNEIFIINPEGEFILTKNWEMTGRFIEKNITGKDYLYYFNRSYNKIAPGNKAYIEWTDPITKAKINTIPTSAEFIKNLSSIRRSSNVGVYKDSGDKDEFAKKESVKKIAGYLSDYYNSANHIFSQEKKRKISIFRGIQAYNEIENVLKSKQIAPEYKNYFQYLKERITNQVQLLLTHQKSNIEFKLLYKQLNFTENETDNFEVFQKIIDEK

Cn1c2c(c(=O)n(C)c1=O)C(c1cccc(Br)c1)C1=C(N2)c2ccccc2C1=O (centres unmarked) [compound IIb]
IC50 [1]: ~5 µM
increase in chloride efflux induced by 8-bromo cyclic AMP or ionomycin (T84 cells [2]): not influenced
increase in chloride efflux induced by isoproterenol, cholera toxin and forskolin (T84 cells [2]): significantly suppressed
chloride anion efflux, increase in fluorescence of MQAE (T84 cells [2]; 50 μM forskolin, forskolin alone 2690, baseline 477): 428 relative units in 10 min
IC50 [3]: 7.2 µM
inhibition at 50 µM ([3]; T84, read-out: inhibition of guanylin-induced cyclic GMP): 58.9%
level of cyclic GMP ([3]; T84 cells, 500 nM guanylin, 50 μM compound, vehicle 124±13): 51±6 pmol/mg protein
cyclic AMP accumulation [4]: 62.1±6.3 pmol/mg protein
decrease of cyclic AMP accumulation [4]: 55.2%
cyclic AMP accumulation ([5]; toxin 1 μg/ml 60 min, vehicle 9.97±0.72): 4.06±0.44 nmol/mg protein
decrease of cyclic AMP accumulation ([5]; toxin 1 μg/ml): 59.2%
IC50 [6]: 8.4 µM
inhibition of cyclic AMP accumulation (adenylyl cyclase): 41.3% and 58.2%
STa-induced increase in chloride efflux (T84 cells [7]): significantly suppressed
